How the values were obtained:
[1] = test system: normal mice with post-prandial hyperglycaemia; experiment: glycaemia of normal mice with post-prandial hyperglycaemia; format: in vivo, Swiss albino mice; conditions: 0.5 mg/mouse by gastric intubation; for GLYCAEMIA AT T0: T0, before administration; for GLYCAEMIA AT T60: T60, one hour after administration; for % inhibition: glycaemia T60 versus T0
Method: (§1) The hypoglycaemic activity of the mixtures I and II, of sodium oxamate and of the compounds of formula (I) have been determined in mice made diabetic with streptozocin and in normal mice with post-prandial hyperglycaemia according to the following procedures:
II—Normal Mice with Post-prandial Hyperglycaemia
Swiss albino mice weighing between 22 and 25 g are made to have post-prandial hyperglycaemia by the following procedure:
food in excess for 1 hour
The glycaemia is measured at the end of the last two hours of fasting, which constitutes the glycaemia at time T0. The mice are then divided into homogeneous batches according to the measured glycaemias. The products to be evaluated are administered without delay by gastric intubation in 0.4 ml of distilled water. The control batch receives the excipient (0.4 ml of distilled water). After one hour, the final glycaemias are measured which constitute the glycaemia at time T60.

[2] = test system: mice made diabetic with streptozotocin; experiment: glycaemia of mice made diabetic with streptozotocin; format: in vivo, Swiss albino mice; conditions: for GLYCAEMIA AT D5 / % change in glycaemia: 0.5 mg/mouse/day by gastric intubation for 4 days; for GLYCAEMIA AT D5: D5, after 4 h fasting; for % change in glycaemia: glycaemia D5 versus D1; for GLYCAEMIA AT D1: 0.5 mg/mouse/day by gastric intubation, D1, start of treatment, after 4 h fasting
Method: as §1
I—Mice Made Diabetic with Streptozotocin
Swiss albino mice weighing between 22 and 25 g are made diabetic with streptozotocin administered by intraperitoneal injection at a dose of 210 or 265 mg/Kg of mouse, diluted in a citrate buffer at a concentration such that each mouse receives 0.2 ml of the solution on day 1 (D1). 3 to 4 days later, a check is made on 2 to 3 mice to see if the diabetes is established (glycaemia greater than 7.2 mmol/liter (130 mg per 100 ml). The glycaemia is then measured after starving for 4 hours. If the mice have become diabetic, they are divided into batches of 5 to 7 mice. Each of the batches receives, from D1 and daily, a selected dose of product. The administration is made once a day and at a fixed time, by gastric intubation and in a volume of 0.4 ml of distilled water as vehicle. Two batches of controls are made up:
one batch of untreated diabetic mice
These two batches of controls receive 0.4 ml of vehicle by gastric intubation and simultaneously with the treated mice.
The treatment lasts for 4 days. On the 5th day (D5), there is no administration of product. After fasting for 4 hours, the final glycaemias are measured.

[3] = oral toxicity (LD50) in mice; conditions: mouse, in vivo, orally in mice
Method: The mixtures according to the invention, the sodium oxamate and the compounds of formula (I) have a low toxicity. Their LD50 is greater than 2000 mg/kg orally in mice.

| Structure (SMILES) | GLYCAEMIA AT T0 [1] | GLYCAEMIA AT T60 [1] | % inhibition [1] | GLYCAEMIA AT D5 [2] | % change in glycaemia [2] | GLYCAEMIA AT D1 [2] | LD50 [3] |
| --- | --- | --- | --- | --- | --- | --- | --- |
| OCC(O)C(O)Cc1cnc(C(O)C(O)C(O)CO)cn1 (stereo not shown) [2-(tetrahydroxybutyl)-5-(2′,3′,4′-trihydroxybutyl)pyrazine] | 128.75 mg/100 ml | 90.50 mg/100 ml | −29.70% | 164.50 mg/100 ml | −45.93% | 304.25 mg/100 ml | – |
| NC(=O)C(=O)[O-].[Na+] [Sodium oxamate, sodium oxamate] | 136.46 mg/100 ml | 102.93 mg/100 ml | −24.57% | 89.90 mg/100 ml | −41.46% | 153.40 mg/100 ml | > 2000 mg/kg |
| OCC(O)C(O)C(O)c1cnc(C(O)C(O)C(O)CO)cn1 (stereo not shown) [2,5-di(tetrahydroxybutyl)pyrazine, 2,5-di-(tetrahydroxybutyl)pyrazine] | 136.25 mg/100 ml | 102.41 mg/100 ml | −24.83% | – | – | – | – |

Reference: patent publication US20020051828A1, “Mixtures which can be isolated from eugenia jambolana lamarck seeds, their preparation and the use of these mixtures and some of their constituents as medicaments” (priority 1996, published 2002)
